Reference: the supplement of paper PMC7840683
Where a name gives a salt, the structure may show the parent alone. ± gives the standard deviation of the averaged measurements.

Tested on: HepaRG
Test: LDH release cytotoxicity, % of total lysis control; higher = more cytotoxic
Settings: 48 h
Outline: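 The CytoTox-ONE kit was used to read LDH in 50 µL spent medium as resorufin fluorescence on a Tecan Safire, with 0.1% Triton X added to total lysis wells. Beforehand, single-lot HepaRG cells on collagen I-coated 96-well plates had been exposed in duplicate for 48 h to eight-point half-log series (top 100 µM) in serum-free induction medium containing 0.5% DMSO. Percent cytotoxicity was normalized against on-plate vehicle and total lysis controls and averaged over duplicates.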

| SMILES | LDH release cytotoxicity (0.03162 µM) [%] | LDH release cytotoxicity (0.1 µM) [%] | LDH release cytotoxicity (0.3162278 µM) [%] | LDH release cytotoxicity (1 µM) [%] | LDH release cytotoxicity (3.16228 µM) [%] | LDH release cytotoxicity (10 µM) [%] | LDH release cytotoxicity (31.6228 µM) [%] | LDH release cytotoxicity (100 µM) [%] | LDH release cytotoxicity (0.031623 µM) [%] | LDH release cytotoxicity (0.316228 µM) [%] | LDH release cytotoxicity (0.02261 µM) [%] | LDH release cytotoxicity (0.0715 µM) [%] | LDH release cytotoxicity (0.2261029 µM) [%] | LDH release cytotoxicity (0.715 µM) [%] | LDH release cytotoxicity (2.26103 µM) [%] | LDH release cytotoxicity (7.15 µM) [%] | LDH release cytotoxicity (22.6103 µM) [%] | LDH release cytotoxicity (71.5 µM) [%] |
| --- | --- | --- | --- | --- | --- | --- | --- | --- | --- | --- | --- | --- | --- | --- | --- | --- | --- | --- |
| CC(=O)SC(C(=O)NC1Cc2ccccc2C2CCCC(C(=O)O)N2C1=O)C(C)C (centres undefined) [Ilepatril] | -3.01 ± 0.96 | -3.51 ± 0.86 | -2.73 ± 1.2 | -2.08 ± 0.5 | -2.73 ± 0.96 | -1.99 ± 0.38 | -1.05 ± 0.81 | -0.123 ± 0.4 |  |  |  |  |  |  |  |  |  |  |
| CC(C)(C)c1ccc(CSc2cnn(C(C)(C)C)c(=O)c2Cl)cc1 [Pyridaben] | -0.363 ± 1.1 | -1.38 ± 0.78 | -1.47 ± 1.4 | -1.89 ± 1.1 | 17.6 ± 2.4 | 26.6 ± 3.7 | 26.9 ± 1.5 | 34.6 ± 7 |  |  |  |  |  |  |  |  |  |  |
| OCC(CO)(CO)CO [Pentaerythritol] | -0.674 ± 0.59 | -1.13 ± 0.089 | -1.3 ± 0.092 | -1.89 ± 1 | -0.206 ± 1.4 | -1.15 ± 0.98 | -0.431 ± 0.65 | 0.764 ± 0.28 |  |  |  |  |  |  |  |  |  |  |
| S=C(S)NCCNC(=S)S [Maneb] |  | -3.72 ± 0.66 |  | -4.15 ± 0.23 | 25.2 ± 5.5 | 75.5 ± 4.6 | 77.2 ± 2.5 | 77.7 ± 3 | -0.532 ± 1.1 | -2.09 ± 1.5 |  |  |  |  |  |  |  |  |
| CCOC(=O)c1ccccc1C(=O)OCC [Diethyl phthalate] | -0.196 ± 0.57 | -0.436 ± 0.76 | -0.318 ± 0.092 | -1.12 ± 0.43 | -0.475 ± 0.13 | -1.03 ± 0.2 | -0.196 ± 0.45 | 5.77 ± 0.6 |  |  |  |  |  |  |  |  |  |  |
| CCCCCCCCCCCCc1ccccc1S(=O)(=O)O [Sodium dodecylbenzenesulfonate] | -1.64 ± 0.19 | -2.37 ± 0.1 | -2.11 ± 0.97 | -2.14 ± 0.36 | -1.89 ± 0.21 | -2.56 ± 1.3 | -1.08 ± 0.42 | 49.9 ± 3.5 |  |  |  |  |  |  |  |  |  |  |
| CN(C)C(=O)Cl [Dimethylcarbamoyl chloride] | -1.3 ± 0.049 | -0.716 ± 0.62 | -0.579 ± 0.073 | -0.789 ± 0.59 | -0.264 ± 0.42 | -0.4 ± 0.096 | -0.611 ± 0.2 | 0.647 ± 0.56 |  |  |  |  |  |  |  |  |  |  |
| CCCCCCCCCCO [1-Decanol] | -1.47 ± 0.66 | -2.45 ± 1 | -1.67 ± 0.81 | -2.76 ± 0.3 | -1.79 ± 1 | -1.21 ± 0.22 | -0.773 ± 0.89 | 0.757 ± 0.16 |  |  |  |  |  |  |  |  |  |  |
| N#CCCCCC#N [Hexanedinitrile] | -0.442 ± 0.26 | -0.226 ± 0.15 | 0.0594 ± 0.38 | -1 ± 1 | -0.445 ± 0.31 | -0.461 ± 0.08 | -0.494 ± 0.13 | 0.294 ± 0.37 |  |  |  |  |  |  |  |  |  |  |
| Oc1cc(Cl)c(Cl)cc1Cl [2,4,5-Trichlorophenol] | -1.03 ± 1.1 | -1.29 ± 0.21 | -1.7 ± 1.3 | -1.77 ± 0.63 | -1.83 ± 0.36 | -1.75 ± 0.2 | -1.87 ± 1.3 | -0.358 ± 0.97 |  |  |  |  |  |  |  |  |  |  |
| Brc1ccc(Oc2ccccc2)cc1 [p-Bromodiphenyl ether] | -0.849 ± 0.61 | -1.4 ± 0.68 | -1.66 ± 0.61 | -1.42 ± 0.37 | -0.77 ± 0.066 | -0.841 ± 0.23 | 0.599 ± 0.93 | 3.7 ± 1.8 |  |  |  |  |  |  |  |  |  |  |
| Cn1c(-c2ccccc2)cc(-c2ccccc2)[n+]1C [Difenzoquat metilsulfate] | -4.98 ± 0.42 | -4.55 ± 0.57 | -3.76 ± 0.46 | -4.22 ± 0.43 | -3.44 ± 0.93 | -3.6 ± 0.33 | -2.99 ± 2 | -1.18 ± 0.17 |  |  |  |  |  |  |  |  |  |  |
| CC(C)CCCCCCOC(=O)C1CCCCC1C(=O)OCCCCCCC(C)C (centres undefined) [Diisononyl cyclohexane-1,2-dicarboxylate] | -0.786 ± 0.8 | -0.599 ± 0.29 | -1.09 ± 0.054 | -0.000557 ± 0.59 | -0.402 ± 0.22 | 0.246 ± 0.61 | -0.258 ± 0.077 | 1.07 ± 0.34 |  |  |  |  |  |  |  |  |  |  |
| CCN(Cc1c(F)cccc1Cl)c1c([N+](=O)[O-])cc(C(F)(F)F)cc1[N+](=O)[O-] [Flumetralin] | -0.56 ± 1.7 | -0.903 ± 0.34 | -1.29 ± 0.66 | -1.01 ± 0.52 | -0.0868 ± 0.54 | -0.582 ± 0.92 | -0.2 ± 0.43 | 5.506 ± 0.052 |  |  |  |  |  |  |  |  |  |  |
| Oc1ccccc1O [1,2-Benzenediol] | -1.86 ± 1.3 | -1.713 ± 0.01 | -1.94 ± 0.18 | -2.41 ± 0.4 | -2.9 ± 0.69 | -2.31 ± 0.29 | -1.42 ± 0.88 | -0.0267 ± 0.61 |  |  |  |  |  |  |  |  |  |  |
| CCC(C)c1cc([N+](=O)[O-])cc([N+](=O)[O-])c1O (centres undefined) [Dinoseb] | -1.28 ± 0.054 | 0.378 ± 0.78 | -1.3 ± 0.076 | -1.58 ± 0.37 | -0.982 ± 1 | -0.113 ± 0.038 | 0.81 ± 0.59 | 2.87 ± 1.4 |  |  |  |  |  |  |  |  |  |  |
| CCCCC(CC)COC(=O)CCCCC(=O)OCC(CC)CCCC (centres undefined) [Bis(2-ethylhexyl)hexanedioate] | -2.21 ± 0.34 | -2.881 ± 0.019 | -3.04 ± 0.8 | -2.88 ± 0.9 | -2.66 ± 0.66 | -2.86 ± 0.26 | -2.54 ± 0.088 | -1.41 ± 0.75 |  |  |  |  |  |  |  |  |  |  |
| CCC(C)N=O (centres undefined) [2-Butanone oxime] |  |  |  |  |  |  |  |  |  |  | 0.0542 ± 0.017 | -0.457 ± 0.27 | -1.06 ± 1 | -1.57 ± 0.89 | -1.04 ± 0.2 | -1.22 ± 0.13 | -1.08 ± 0.69 | 0.052 ± 1 |
| OC(c1ccc(Cl)cc1)(c1ccc(Cl)cc1)C(Cl)(Cl)Cl [Dicofol] | -4.47 ± 0.11 | -4.19 ± 0.15 | -3.36 ± 1.2 | -3.88 ± 0.76 | -3.71 ± 1.1 | -3.02 ± 0.35 | -3.41 ± 0.081 | -0.0654 ± 3 |  |  |  |  |  |  |  |  |  |  |
| c1ccc2[nH]nnc2c1 [1,2,3-Benzotriazole] | -1.49 ± 0.2 | -1.03 ± 0.94 | -1.12 ± 0.52 | -1.12 ± 0.55 | -1.23 ± 0.65 | -0.765 ± 0.061 | 0.381 ± 0.99 | 1.81 ± 0.42 |  |  |  |  |  |  |  |  |  |  |
| OC1CCC(C2CCCCC2)CC1 (centres undefined) [4-Cyclohexylcyclohexanol] | -1.67 ± 0.32 | -1.27 ± 1.5 | -1.62 ± 1.1 | -2.39 ± 0.036 | -2.08 ± 1.7 | -1.58 ± 0.49 | -1.22 ± 0.35 | 0.00977 ± 0.63 |  |  |  |  |  |  |  |  |  |  |
| CCCOC(=O)NCCCN(C)C [Propamocarb hydrochloride] | 0.518 ± 0.36 | -0.315 ± 0.73 | -0.112 ± 0.25 | -0.746 ± 0.025 | 0 ± 0.72 | 0.683 ± 0.9 | 0.664 ± 0.54 | 0.411 ± 0.061 |  |  |  |  |  |  |  |  |  |  |
| CC1(C)C(=O)N(Br)C(=O)N1Br [1,3-Dibromo-5,5-dimethylhydantoin] | -0.925 ± 1.3 | -0.284 ± 1.3 | -0.732 ± 0.032 | -1.11 ± 0.88 | -0.698 ± 0.06 | 0.338 ± 1.5 | -0.0587 ± 0.89 | 0.735 ± 0.36 |  |  |  |  |  |  |  |  |  |  |
| O=C1CCC(N2C(=O)c3ccccc3C2=O)C(=O)N1 (centres undefined) [Thalidomide] | -0.888 ± 0.55 | -1.52 ± 0.44 | -0.291 ± 0.28 | -0.415 ± 0.18 | -0.0333 ± 0.45 | 0.674 ± 0.93 | 1.56 ± 1.5 | 1.53 ± 1.5 |  |  |  |  |  |  |  |  |  |  |
| COc1cc2c(c(OC)c1OC)-c1ccc(OC)c(=O)cc1C(NC(C)=O)CC2 (centres undefined) [Colchicine] |  | 7.47 ± 1.3 |  | 10.1 ± 2.2 | 11.5 ± 4.3 | 10.1 ± 0.93 | 7.72 ± 1.5 | 5.064 ± 0.022 | 2.9 ± 1.9 | 10.8 ± 1.7 |  |  |  |  |  |  |  |  |
| COC(=O)CCC(=O)OC [Dimethyl succinate] | -1.91 ± 0.15 | -0.897 ± 0.57 | -1.76 ± 0.078 | -2.16 ± 0.17 | -1.84 ± 0.28 | -1.56 ± 0.26 | -1.39 ± 0.24 | 0.319 ± 0.33 |  |  |  |  |  |  |  |  |  |  |
| CCOCN(C(=O)CCl)c1c(C)cccc1CC [Acetochlor] | -0.907 ± 0.26 | -1.94 ± 0.45 | -0.877 ± 0.019 | -0.999 ± 0.47 | -1.55 ± 0.19 | -0.606 ± 0.56 | 0.268 ± 0.58 | 56.1 ± 2.4 |  |  |  |  |  |  |  |  |  |  |
| CCOP(=O)(OCC)Oc1cc(C)nc(C(C)C)n1 [Diazoxon] | -0.61 ± 0.39 | -1.35 ± 0.75 | -0.708 ± 1.4 | -1.37 ± 1.6 | -1.41 ± 0.85 | -0.802 ± 2.1 | -0.357 ± 1.4 | 1.03 ± 2.2 |  |  |  |  |  |  |  |  |  |  |
